According to ChEMBL document CHEMBL1157568, “Toward biophysical probes for the 5-HT3 receptor: structure-activity relationship study of granisetron derivatives” (J Med Chem, 2010):
The source made the active and inactive calls. The calls are words filed in the database; no cut-off is given here.

Legend:
[1] = target: T1, 5-hydroxytryptamine receptor 3A (Homo sapiens) (UniProt P46098); test: Binding affinity to human 5HT3A receptor in HEK293 cells assessed as cell labeling by confocal microscopy in presence of quipazine; assay type: cell-based
T1 sequence (whole entry): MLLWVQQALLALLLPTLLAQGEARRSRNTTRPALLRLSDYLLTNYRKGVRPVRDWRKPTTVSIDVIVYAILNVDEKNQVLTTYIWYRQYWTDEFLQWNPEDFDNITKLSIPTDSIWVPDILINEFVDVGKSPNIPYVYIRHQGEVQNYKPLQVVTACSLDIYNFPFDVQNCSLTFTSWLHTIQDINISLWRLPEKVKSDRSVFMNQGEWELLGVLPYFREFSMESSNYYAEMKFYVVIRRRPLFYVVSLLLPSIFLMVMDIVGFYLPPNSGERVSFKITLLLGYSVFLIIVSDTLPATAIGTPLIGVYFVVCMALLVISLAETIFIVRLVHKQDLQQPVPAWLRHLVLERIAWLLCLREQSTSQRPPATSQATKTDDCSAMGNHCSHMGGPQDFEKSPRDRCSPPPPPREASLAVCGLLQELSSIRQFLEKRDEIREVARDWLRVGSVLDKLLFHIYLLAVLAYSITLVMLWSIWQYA

[2] = target: T2, 5-hydroxytryptamine receptor 3A (Homo sapiens, UniProt P46098); test: Binding affinity to human 5HT3A receptor in HEK293 cells assessed as cell labeling by confocal microscopy; assay type: cell-based
T2 sequence (P46098 whole entry): T1 sequence (whole entry)

For `Cc1cc(C)n2c1C=C1C=CC(NCC(=O)NCCCn3nc(C(=O)N[C@H]4C[C@H]5CCC[C@@H](C4)N5C)c4ccccc43)=[N+]1[B-]2(F)F`, the Activity [1] was “Active” and the Ki [2] was 2.8 nM.
